Laboratory results taken from ChEMBL document CHEMBL1154209, “Triple recognition of B-DNA” (Bioorg Med Chem Lett, 2009).
Active and inactive are the calls of the source. No cut-off for these calls is given here.

Key:
Format in all cases: nucleic-acid assay
Nucleic Acid [1] = test: Binding affinity to duplex DNA dA22.dT22 assessed as change in melting temperature at 3 uM by UV analysis at 260 nm
Nucleic Acid [2] = test: Binding affinity to duplex DNA polydA:polydT assessed as increase of CD signal at 360nm and at 200 uM compound concentration
Nucleic Acid [3] = test: Binding affinity to duplex DNA polydA:polydT assessed as decrease in viscosity at 200 uM

Work on `NC[C@@H]1O[C@H](O[C@H]2[C@@H](O)[C@H](O[C@@H]3[C@@H](O)[C@H](N)C[C@H](N)[C@H]3O[C@H]3O[C@H](CN)[C@@H](O)[C@H](O)[C@H]3N)O[C@@H]2CO)[C@H](N)[C@@H](O)[C@@H]1O` yielded a ΔTm (Nucleic Acid [1]) of 0 °C.
For `CN1CCN(c2ccc3[nH]c(-c4ccc5[nH]c(-c6ccc(OCCOCCOCCN(CCOCCOCCNC(=S)NCCSCC[C@H]7O[C@@H](O[C@H]8[C@H](O)[C@@H](N)C[C@@H](N)[C@@H]8O[C@H]8O[C@H](CN)[C@@H](O)[C@H](O)[C@H]8N)[C@H](O)[C@@H]7O[C@@H]7O[C@H](CN)[C@H](O)[C@@H](O)[C@@H]7N)C(=O)CCCc7ccc8ccc9cccc%10ccc7c8c9%10)cc6)nc5c4)nc3c2)CC1`, the Activity (Nucleic Acid [2]) was “Active”, the Activity (Nucleic Acid [3]) was “Active” and the ΔTm (Nucleic Acid [1]) was 35 °C.
Molecule `CN1CCN(c2ccc3[nH]c(-c4ccc5[nH]c(-c6ccc(O)cc6)nc5c4)nc3c2)CC1` has a ΔTm (Nucleic Acid [1]) of 22 °C.
`CN1CCN(c2ccc3[nH]c(-c4ccc5[nH]c(-c6ccc(OCCOCCOCCN(CCOCCOCCN)C(=O)CCCc7ccc8ccc9cccc%10ccc7c8c9%10)cc6)nc5c4)nc3c2)CC1` gave a ΔTm (Nucleic Acid [1]) of 16 °C.
For `CN1CCN(c2ccc3[nH]c(-c4ccc5[nH]c(-c6ccc(OCCOCCOCCOCCOCCOCCNC(=S)NCCSCC[C@H]7O[C@@H](O[C@H]8[C@H](O)[C@@H](N)C[C@@H](N)[C@@H]8O[C@H]8O[C@H](CN)[C@@H](O)[C@H](O)[C@H]8N)[C@H](O)[C@@H]7O[C@@H]7O[C@H](CN)[C@H](O)[C@@H](O)[C@@H]7N)cc6)nc5c4)nc3c2)CC1`, the Activity (Nucleic Acid [2]) was “Active”, the Activity (Nucleic Acid [3]) was “Active” and the ΔTm (Nucleic Acid [1]) was 24 °C.
For `NC[C@H]1O[C@@H](O[C@H]2[C@@H](O)[C@H](O[C@H]3[C@H](O)[C@@H](N)C[C@@H](N)[C@@H]3O[C@H]3O[C@H](CN)[C@@H](O)[C@H](O)[C@H]3N)O[C@@H]2CCSCCNC(=S)NCCOCCOCCNC(=O)CCCc2ccc3ccc4cccc5ccc2c3c45)[C@@H](N)[C@H](O)[C@H]1O`, the ΔTm (Nucleic Acid [1]) was 5 °C.
Molecule `Nc1ccc2ccc3cccc4ccc1c2c34` has a ΔTm (Nucleic Acid [1]) of 2 °C.
